Source: patent US20240207427A1, “SELECTIVE DRUG RELEASE FROM INTERNALIZED CONJUGATES OF BIOLOGICALLY ACTIVE COMPOUNDS” (priority 2021, published 2024)
Read-outs that look alike come from different tables or passages of the source.

What was measured:
Assay type in all cases: cell-based
[1] = tested on: anaplastic large cell lymphoma cells (DEL); assay: In vitro potency (CellTiter-Glo, 96 h), DEL
Method: (§1) In vitro potency was assessed on multiple cancer cell lines. All cell lines were authenticated by STR profiling at IDEXX Bioresearch and cultured for no more than 2 months after resuscitation. Cells cultured in log-phase growth were seeded for 24 hours in 96-well plates containing […] RPMI 1640 supplemented with 20% FBS. Serial dilutions of antibody-drug conjugates in cell culture media were prepared at 4× working concentrations, and 50 μL of each dilution was added to the 96-well plates. Following addition of test articles, cells were incubated with test articles for 4 days at 37 0° C. After 96 hours, growth inhibition was assessed by CellTiterGlo® (Promega, Madison, WI) and luminescence was measured on a plate reader.
(§2) In Table 7, IC50 values for ADCs are given in ng/mL. Cell viability was determined by CellTiter-Glo staining after 96 h exposure to ADC. ND=Not Determined. Ag2 is an antibody targeting a ubiquitous and readily internalizable antigen. The cancer cell lines tested are renal carcinoma cells (786-0), melanoma cells (A2058), pancreatic cancer cells (BxPC3), non-small-cell lung cancer cells (Calu1), anaplastic large cell lymphoma cells (DEL, DELBVR, Karpas299), Hodgkin's lymphoma cells (L540cy), (Ls174T), breast cancer cells (MDA-MB-231), acute myeloid leukemia cells (MOLM-13), and B-lymphocyte cancer cells (SU-DHL4).
as §1, with “FBS.” for “FBS. Serial dilutions of antibody-drug conjugates in cell culture media were prepared at 4× working concentrations, and 50 μL of each dilution was added to the 96-well plates.”
(§3) Cell viability was determined by CellTiter-Glo staining after 96 h exposure to the compound. ND=Not Determined. The cancer cell lines tested are renal carcinoma cells (786-0), melanoma cells (A2058), pancreatic cancer cells (BxPC3), non-small-cell lung cancer cells (Calu1), anaplastic large cell lymphoma cells (DEL, DELBVR, Karpas299), Hodgkin's lymphoma cells (L540cy), (Ls 174T), breast cancer cells (MDA-MB-231), acute myeloid leukemia cells (MOLM-13), B-lymphocyte cancer cells (SU-DHL4), multiple myeloma cells (MM.1R), (U266), and melanoma cells (SK-MEL-5).
as §1, with “37°” for “37 0°”
(§4) In the following Tables IC50 values for ADCs and CPT free drugs are given in ng/mL and nmol/L concentrations. Cell viability was determined by CellTiter-Glo staining after 96 h exposure to ADC or CPT free drug.
(§5) Cell viability was determined by CellTiter-Glo staining after 96 h exposure to ADC. ND=Not Determined.

[2] = tested on: anaplastic large cell lymphoma cells (DELBVR); assay: In vitro potency (CellTiter-Glo, 96 h), DELBVR
Method: as §1, §2
as §1, with “FBS.” for “FBS. Serial dilutions of antibody-drug conjugates in cell culture media were prepared at 4× working concentrations, and 50 μL of each dilution was added to the 96-well plates.”
as §3
as §1, with “37°” for “37 0°”
as §4, §5

[3] = tested on: renal carcinoma cells (786-O); assay: In vitro potency (CellTiter-Glo, 96 h), 786-O; details: Homo sapiens, 786-0, 96 h
Method: as §1, §2
as §1, with “FBS.” for “FBS. Serial dilutions of antibody-drug conjugates in cell culture media were prepared at 4× working concentrations, and 50 μL of each dilution was added to the 96-well plates.”
as §3
as §1, with “37°” for “37 0°”
as §4, §5

[4] = tested on: anaplastic large cell lymphoma cells (Karpas299); assay: In vitro potency (CellTiter-Glo, 96 h), Karpas299; details: Homo sapiens, KARPAS-299, 96 h
Method: as §1, §2
as §1, with “FBS.” for “FBS. Serial dilutions of antibody-drug conjugates in cell culture media were prepared at 4× working concentrations, and 50 μL of each dilution was added to the 96-well plates.”
as §3
as §1, with “37°” for “37 0°”
as §4, §5

Ls174T cells = assay: In vitro potency (CellTiter-Glo, 96 h), Ls174T; details: Homo sapiens, LS174T, 96 h, 96 h
Method: as §1, §2
as §1, with “FBS.” for “FBS. Serial dilutions of antibody-drug conjugates in cell culture media were prepared at 4× working concentrations, and 50 μL of each dilution was added to the 96-well plates.”
as §3
as §1, with “37°” for “37 0°”
as §4, §5

[5] = tested on: Hodgkin's lymphoma cells (L540cy); assay: In vitro potency (CellTiter-Glo, 96 h), L540cy
Method: as §1, §2
as §1, with “FBS.” for “FBS. Serial dilutions of antibody-drug conjugates in cell culture media were prepared at 4× working concentrations, and 50 μL of each dilution was added to the 96-well plates.”
as §3
as §1, with “37°” for “37 0°”
as §4, §5

[6] = tested on: breast cancer cells (MDA-MB-231); assay: In vitro potency (CellTiter-Glo, 96 h), MDA-MB-231; details: Homo sapiens, MDA-MB-231, 96 h, CPT free drugs, breast cancer cells MDA-MB-231, 96 h, CellTiter-Glo
Method: as §1, §2
as §1, with “FBS.” for “FBS. Serial dilutions of antibody-drug conjugates in cell culture media were prepared at 4× working concentrations, and 50 μL of each dilution was added to the 96-well plates.”
as §3
as §1, with “37°” for “37 0°”
as §4, §5

[7] = tested on: pancreatic cancer cells (BxPC3); assay: In vitro potency (CellTiter-Glo, 96 h), BxPC3; details: Homo sapiens, BXPC-3, 96 h
Method: as §1, §2
as §1, with “FBS.” for “FBS. Serial dilutions of antibody-drug conjugates in cell culture media were prepared at 4× working concentrations, and 50 μL of each dilution was added to the 96-well plates.”
as §3
as §1, with “37°” for “37 0°”
as §4, §5

[8] = tested on: acute myeloid leukemia cells (MOLM-13); assay: In vitro potency (CellTiter-Glo, 96 h), MOLM-13; details: Homo sapiens, MOLM-13, 96 h
Method: as §1, §2
as §1, with “FBS.” for “FBS. Serial dilutions of antibody-drug conjugates in cell culture media were prepared at 4× working concentrations, and 50 μL of each dilution was added to the 96-well plates.”
as §3
as §1, with “37°” for “37 0°”
as §4, §5

[9] = tested on: B-lymphocyte cancer cells (SU-DHL4); assay: In vitro potency (CellTiter-Glo, 96 h), SU-DHL-4; details: Homo sapiens, SU-DHL-4, 96 h
Method: as §1, §2
as §1, with “FBS.” for “FBS. Serial dilutions of antibody-drug conjugates in cell culture media were prepared at 4× working concentrations, and 50 μL of each dilution was added to the 96-well plates.”
as §3
as §1, with “37°” for “37 0°”
as §4, §5

melanoma cells (A2058) = assay: In vitro potency (CellTiter-Glo, 96 h), A2058; details: Homo sapiens, A2058, 96 h, read-out: A2058 IC50
Method: as §1, §2
as §1, with “FBS.” for “FBS. Serial dilutions of antibody-drug conjugates in cell culture media were prepared at 4× working concentrations, and 50 μL of each dilution was added to the 96-well plates.”
as §3
as §1, with “37°” for “37 0°”
as §4, §5

[10] = read-out: DEL IC50, Table 29, CPT free drugs, anaplastic large cell lymphoma cells DEL, CellTiter-Glo
[11] = read-out: DELBVR IC50, Table 29, CPT free drugs, anaplastic large cell lymphoma cells DELBVR, CellTiter-Glo
[12] = read-out: 786-O IC50, Table 29, CPT free drugs, renal carcinoma cells 786-O, 96 h, CellTiter-Glo
[13] = read-out: Karpas299 IC50, Table 29, CPT free drugs, anaplastic large cell lymphoma cells Karpas299, 96 h, CellTiter-Glo
[14] = read-out: Ls174T IC50, Table 29, CPT free drugs, Ls174T cells, CellTiter-Glo
[15] = read-out: L540cy IC50, Table 29, CPT free drugs, Hodgkin's lymphoma cells L540cy, CellTiter-Glo
[16] = read-out: MDAMB231 IC50, Table 29
[17] = read-out: BxPC3 IC50, Table 29, CPT free drugs, pancreatic cancer cells BxPC3, 96 h, CellTiter-Glo
[18] = read-out: MOLM-13 IC50, Table 29, CPT free drugs, acute myeloid leukemia cells MOLM-13, 96 h, CellTiter-Glo
[19] = read-out: SU-DHL-4 IC50, Table 29, CPT free drugs, B-lymphocyte cancer cells SU-DHL4, 96 h, CellTiter-Glo

| SMILES | IC50 [1, 10] [nM] | IC50 [2, 11] [nM] | IC50 [3, 12] [nM] | IC50 [4, 13] [nM] | IC50 (Ls174T cells; [14]) [nM] | IC50 [5, 15] [nM] | IC50 [6, 16] [nM] | IC50 [7, 17] [nM] | IC50 [8, 18] [nM] | IC50 [9, 19] [nM] | further results |
| --- | --- | --- | --- | --- | --- | --- | --- | --- | --- | --- | --- |
| CC[C@@]1(O)C(=O)OCc2c1cc1n(c2=O)Cc2c-1nc1cc3c(cc1c2CNC(=O)CN)CCO3 [Compound 13] | – | – | – | – | – | – | – | – | – | – | IC50 ([1]; read-out: DEL IC50, Table 28, CPT free drugs, anaplastic large cell lymphoma cells DEL, CellTiter-Glo): 8 nM; IC50 ([2]; read-out: DELBVR IC50, Table 28, CPT free drugs, anaplastic large cell lymphoma cells DELBVR, CellTiter-Glo): 21 nM; IC50 ([3]; read-out: 786-O IC50, Table 28, CPT free drugs, renal carcinoma cells 786-O, 96 h, CellTiter-Glo): 139 nM; IC50 ([4]; read-out: Karpas299 IC50, Table 28, CPT free drugs, anaplastic large cell lymphoma cells Karpas299, 96 h, CellTiter-Glo): 126 nM; IC50 (Ls174T cells; read-out: Ls174T IC50, Table 28, CPT free drugs, Ls174T cells, CellTiter-Glo): 195 nM; IC50 ([5]; read-out: L540cy IC50, Table 28, CPT free drugs, Hodgkin's lymphoma cells L540cy, CellTiter-Glo): 45 nM; IC50 ([6]; read-out: MDAMB231 IC50, Table 28): 177 nM; IC50 ([7]; read-out: BxPC3 IC50, Table 28, CPT free drugs, pancreatic cancer cells BxPC3, 96 h, CellTiter-Glo): 94 nM; IC50 ([8]; read-out: MOLM-13 IC50, Table 28, CPT free drugs, acute myeloid leukemia cells MOLM-13, 96 h, CellTiter-Glo): 88 nM; IC50 ([9]; read-out: SU-DHL-4 IC50, Table 28, CPT free drugs, B-lymphocyte cancer cells SU-DHL4, 96 h, CellTiter-Glo): 18 nM |
| CC[C@@]1(O)C(=O)OCc2c1cc1n(c2=O)Cc2c-1nc1cc3c(cc1c2CN1CCC(N)CC1)OCO3 [Compound 8f] | 14 | 30 | 267 | 110 | 236 | 84 | 207 | 166 | 32 | 32 | – |
| CC[C@@]1(O)C(=O)OCc2c1cc1n(c2=O)Cc2c-1nc1cc3c(cc1c2CNCCN1CCNCC1)OCO3 [Compound 8b] | 8 | 13 | 102 | 62 | 111 | 56 | 260 | 51 | 91 | 17 | – |
| CC[C@@]1(O)C(=O)OCc2c1cc1n(c2=O)Cc2c-1nc1cc3c(cc1c2CNCCCN1CCNCC1)OCO3 [Compound 8d] | 2 | 2 | 15 | 9 | 19 | 6 | 25 | 14 | 37 | 6 | – |
| CC[C@@]1(O)C(=O)OCc2c1cc1n(c2=O)Cc2c-1nc1cc3c(cc1c2CNCCN1CCN(C)CC1)OCO3 [Compound 7b] | – | – | – | – | – | – | – | – | – | – | IC50 ([1]; read-out: DEL IC50, camptothecin free drug, 96 h): 54 nM; IC50 ([2]; read-out: DELBVR IC50, camptothecin free drug, 96 h): 55 nM; IC50 (melanoma cells (A2058)): 55 nM; IC50 ([3]; read-out: 786-O IC50, camptothecin free drug, 96 h): 162 nM; IC50 ([4]; read-out: Karpas299 IC50, camptothecin free drug, 96 h): 158 nM; IC50 (Ls174T cells; read-out: Ls174T IC50, camptothecin free drug, 96 h): 77 nM; IC50 ([5]; read-out: L540cy IC50, camptothecin free drug, 96 h): 87 nM; IC50 ([7]; read-out: BxPC3 IC50, camptothecin free drug, 96 h): 172 nM; IC50 ([8]; read-out: MOLM-13 IC50, camptothecin free drug, 96 h): 533 nM; IC50 ([9]; read-out: SU-DHL-4 IC50, camptothecin free drug, 96 h): 94 nM |
| CC[C@@]1(O)C(=O)OCc2c1cc1n(c2=O)Cc2c-1nc1cc3c(cc1c2CN1CCN(CCN)CC1)OCO3 [Compound 8c] | 3 | 4 | 27 | 28 | 32 | 14 | 57 | 14 | 69 | 7 | – |
